Consider 5 compounds from US8501734B2, “Medical intervention in haematological cancers” (Oncotyrol-Center for Personalized Cancer Medicine GmbH …, priority 2008, dated 2013).

One assay concerns OPM2 cells. The experiment in a line: Annexin V/PI apoptosis assay (FACS), OPM2 cells. Type of assay: cell-based. The arrangement: apoptosis induction: unit not given here. The note with it: OPM2 cells. Here is the method:
(§1) After treatment adherent cells were trypsinized (as described before), and resuspended in corresponding full medium. Suspension cells or trypsinized adherent cells, supernatant and washing solution (1×PBS from washing before trypsinization) were pooled and then spun down (300 g for 3 min) washed in 2 ml and resuspended in 1000 of annexin V binding buffer and mixed with 2 μg/ml annexin V-Allophycocyanin (APC) (BD-Pharmingen, San Diego, Calif., USA) and 50 ng/ml of propidium iodide (PI; Sigma Aldrich). At least 10.000 cells were measured per sample using a Becton Dickinson FACSCalibur flow Cytometer (San Jose, Calif., USA). Percentage of Annexin V negative and PI negative cells were depicted in the figures. For the analysis of the pro-apoptotic activity of Imiquimod® in primary MM cells and non-malignant BMMCs, 5×10^5 cells BMMCs cells were treated with or without 40 μg/ml Imiquimod® for the indicated time periods. Cells were then harvested and washed twice with PBS. Detection of apoptotic cells was performed using the annexin V/PI assay according to manufacturers' instruction. Briefly, BMMCs were stained with a mixture of annexin V/FITC (Alexis Coorp., Laeufelfingen, Switzerland), propidium iodide (Sigma), anti-CD38-PE and anti-CD45-PC5 for 15 min at room temperature and immediately analyzed by flow cytometry. The percentages of viable cells (i.e. cells negative for annexin V/FITC and PI) within the MM (CD38^posCD45^low/absent) and non-MM fraction (CD38^neg/CD45^pos) were determined by flow cytometry.
Cells were cultured as described before and, treated with 40 μg/ml Imiquimod® or Gardiquimod® for 24 h, and apoptosis was assayed by AnnexinV/PI staining and FACS analysis.
(§2) Adherent cells were grown in 24-well plates to confluence and treated with 40 μg/ml Imiquimod® for 24 h. Cells were then trypsinized, suspended in full medium, stained for AnnexinV/PI and apoptosis was measured as described before. Suspension cells (250.000) were treated with 40 μg/ml Imiquimod® for 24 h, stained for Annexin/PI and apoptosis was measured as described above (Annexin V/Propidium Iodide apoptosis Assay).
(§3) OPM-2 and U266 cells (2.5×10^5 in 500 μl) were treated with either Imiquimod® alone (10 μg/500 μl), various inhibitors/drugs alone or with the combination of Imiquimod® and inhibitors for 24 or 48 h. In the controls the solvent of the drug has been added in appropriate amounts. Cells were then AnnexinV/PI stained and apoptosis measured as described before.

A further assay concerns U266 cells. The experiment in a line: Annexin V/PI apoptosis assay (FACS), U266 cells. Also: key: 0 for no; + for low; ++: + indicates the range of apoptosis induction; +++: + indicates the range of apoptosis induction; ++++ for very strong apoptosis induction. The class given is cell-based. Details: apoptosis induction: unit not given here. The protocol: as §1, §2, §3
The mark [1] stands for this setting: 24 h, Imi 20 μg/ml + drug 10 nM.
Setting [2] is: 24 h, Imi 20 μg/ml + drug 100 nM.
[3] abbreviates: 48 h, Imi 20 μg/ml + drug 10 nM.
Setting [4] is: 48 h, Imi 20 μg/ml + drug 100 nM.
Setting [5] is: 24 h, Imi 20 μg/ml + drug 10 μM.
[6] abbreviates: 24 h, Imi 20 μg/ml + drug 20 μM.
The mark [7] stands for this setting: 24 h, Imi 20 μg/ml + drug 50 μM.
Where [8] appears, read: 48 h, Imi 20 μg/ml + drug 10 μM.
Setting [9] is: 48 h, Imi 20 μg/ml + drug 20 μM.
Setting [10] is: 48 h, Imi 20 μg/ml + drug 50 μM.
Setting [11] is: 24 h, Imi 20 μg/ml + drug 1 ng/ml.
Where [12] appears, read: 24 h, Imi 20 μg/ml + drug 10 ng/ml.
[13] abbreviates: 24 h, Imi 20 μg/ml + drug 50 ng/ml.
[14] abbreviates: 48 h, Imi 20 μg/ml + drug 1 ng/ml.
The mark [15] stands for this setting: 48 h, Imi 20 μg/ml + drug 10 ng/ml.
The mark [16] stands for this setting: 48 h, Imi 20 μg/ml + drug 50 ng/ml.

For `C[C@@H]1C[C@H]2[C@@H]3CCC4=CC(=O)C=C[C@]4(C)[C@@]3(F)[C@@H](O)C[C@]2(C)[C@@]1(O)C(=O)CO` [Dex., Dexamethasone], the apoptosis induction result is listed as “+” in the assay with OPM2 cells (setting [1]); “+” in the assay with OPM2 cells (setting [2]); “+” with OPM2 cells (24 h, Imi 20 μg/ml + drug 1 μM); 0 in the assay with OPM2 cells (24 h, drug alone 10 nM); 0 in the assay on OPM2 cells (24 h, drug alone 100 nM); 0 with OPM2 cells (24 h, drug alone 1 μM). Besides, the apoptosis induction entry in the assay with OPM2 cells (setting [3]) is “++”; in the assay on OPM2 cells (setting [4]) it was “+++”; with OPM2 cells (48 h, Imi 20 μg/ml + drug 1 μM), “+++”; in the assay with OPM2 cells (48 h, drug alone 10 nM), 0; with OPM2 cells (48 h, drug alone 100 nM), 0; with OPM2 cells (48 h, drug alone 1 μM), 0. For the same compound, the apoptosis induction result in the assay on U266 cells (setting [1]) was “+”; in the assay with U266 cells (setting [2]), “+”; in the assay on U266 cells (24 h, Imi 20 μg/ml + drug 1 μM) it was “+”; in the assay on U266 cells (24 h, drug alone 10 nM), 0; with U266 cells (24 h, drug alone 100 nM), 0; in the assay on U266 cells (24 h, drug alone 1 μM), 0. Also, the apoptosis induction result is given as “+” in the assay on U266 cells (setting [3]); “+” with U266 cells (setting [4]); “+” with U266 cells (48 h, Imi 20 μg/ml + drug 1 μM); 0 with U266 cells (48 h, drug alone 10 nM); 0 with U266 cells (48 h, drug alone 100 nM); 0 in the assay on U266 cells (48 h, drug alone 1 μM).

For `CCNCc1nc2c(N)nc3ccccc3c2n1CC(C)(C)O` [Gardiquimod, 1-(4-Amino-2-ethylaminomethylimidazo[4,5-c]quinolin-1-yl)-2-methylpropan-2-ol], the “apoptosis induction compared with Imiquimod” value in the assay on OPM2 cells (40 μg/ml, 24 h) is “comparable, though slightly lower extend”.

With `N[C@@H](Cc1ccc(N(CCCl)CCCl)cc1)C(=O)O` [Melphalan], the apoptosis induction result is “+” with OPM2 cells (setting [5]); “++” in the assay with OPM2 cells (setting [6]); “++” in the assay with OPM2 cells (setting [7]); “+” in the assay on OPM2 cells (24 h, drug alone 10 μM); “+” in the assay on OPM2 cells (24 h, drug alone 20 μM); “++” in the assay with OPM2 cells (24 h, drug alone 50 μM). Further, the apoptosis induction result in the assay on OPM2 cells (setting [8]) is on record as “++”; in the assay with OPM2 cells (setting [9]) it was “++++”; in the assay with OPM2 cells (setting [10]), “++++”; in the assay with OPM2 cells (48 h, drug 20 μM and 50 μM + Imiquimod 20 μg/ml), “nearly complete apoptosis induction in all cells”; in the assay on OPM2 cells (48 h, drug alone 10 μM), “+”; with OPM2 cells (48 h, drug alone 20 μM), “++”. Also, the apoptosis induction result was “+++” in the assay on OPM2 cells (48 h, drug alone 50 μM); “+” in the assay with U266 cells (setting [5]); “++” in the assay with U266 cells (setting [6]); “+++” with U266 cells (setting [7]); “+” with U266 cells (24 h, drug alone 10 μM); “+” in the assay on U266 cells (24 h, drug alone 20 μM). The apoptosis induction result was “++” with U266 cells (24 h, drug alone 50 μM); “++” in the assay with U266 cells (setting [8]); “++” with U266 cells (setting [9]); “+++” with U266 cells (setting [10]); “+” in the assay on U266 cells (48 h, drug alone 10 μM); “+” with U266 cells (48 h, drug alone 20 μM). The apoptosis induction result with U266 cells (48 h, drug alone 50 μM) is recorded as “+++”.

Take `CC(C)C[C@H](NC(=O)[C@H](Cc1ccccc1)NC(=O)c1cnccn1)B(O)O` [Velcade]: the apoptosis induction entry in the assay on OPM2 cells (setting [11]) was “+”; in the assay with OPM2 cells (setting [12]) it was “+”; with OPM2 cells (setting [13]), “+”; with OPM2 cells (24 h, drug alone 1 ng/ml) it was 0; in the assay on OPM2 cells (24 h, drug alone 10 ng/ml) it was “+”; in the assay with OPM2 cells (24 h, drug alone 50 ng/ml), “+”. The apoptosis induction entry was “++” in the assay with OPM2 cells (setting [14]); “++” in the assay with OPM2 cells (setting [15]); “+++” in the assay with OPM2 cells (setting [16]); 0 in the assay with OPM2 cells (48 h, drug alone 1 ng/ml); “+++” with OPM2 cells (48 h, drug alone 10 ng/ml); “+++” in the assay with OPM2 cells (48 h, drug alone 50 ng/ml). Besides, the apoptosis induction entry is given as “+” in the assay with U266 cells (setting [11]); “+” in the assay with U266 cells (setting [12]); “++” with U266 cells (setting [13]); 0 in the assay on U266 cells (24 h, drug alone 1 ng/ml); “++” with U266 cells (24 h, drug alone 10 ng/ml); “++” with U266 cells (24 h, drug alone 50 ng/ml). Further, the apoptosis induction result is listed as “+” in the assay on U266 cells (setting [14]); “++” with U266 cells (setting [15]); “++” in the assay with U266 cells (setting [16]); 0 in the assay with U266 cells (48 h, drug alone 1 ng/ml); “+++” in the assay with U266 cells (48 h, drug alone 10 ng/ml); “+++” in the assay on U266 cells (48 h, drug alone 50 ng/ml).

On to `Cn1c2ccccc2c2c3c(c4c5ccccc5n(CCC#N)c4c21)CNC3=O` [Gö 6976], for which the apoptosis induction entry in the assay on OPM2 cells (setting [2]) was “+”; in the assay on OPM2 cells (24 h, Imi 20 μg/ml + drug 1 μM) it was “++”; in the assay with OPM2 cells (24 h, Imi 20 μg/ml + drug 5 μM) it was “++”; in the assay on OPM2 cells (24 h, drug alone 100 nM) it was 0; in the assay with OPM2 cells (24 h, drug alone 1 μM), 0; in the assay with OPM2 cells (24 h, drug alone 5 μM), 0. Moreover, the apoptosis induction entry is on record as “++” in the assay on OPM2 cells (setting [4]); “+++” in the assay with OPM2 cells (48 h, Imi 20 μg/ml + drug 1 μM); “+++” with OPM2 cells (48 h, Imi 20 μg/ml + drug 5 μM); 0 in the assay with OPM2 cells (48 h, drug alone 100 nM); 0 in the assay on OPM2 cells (48 h, drug alone 1 μM); “+” in the assay with OPM2 cells (48 h, drug alone 5 μM). Moreover, the apoptosis induction result is on record as “+” in the assay with U266 cells (setting [2]); “++” in the assay with U266 cells (24 h, Imi 20 μg/ml + drug 1 μM); “++” in the assay on U266 cells (24 h, Imi 20 μg/ml + drug 5 μM); 0 in the assay on U266 cells (24 h, drug alone 100 nM); 0 in the assay on U266 cells (24 h, drug alone 1 μM); 0 in the assay with U266 cells (24 h, drug alone 5 μM). In addition, the apoptosis induction entry was “++” in the assay with U266 cells (setting [4]); “+++” in the assay with U266 cells (48 h, Imi 20 μg/ml + drug 1 μM); “+++” in the assay with U266 cells (48 h, Imi 20 μg/ml + drug 5 μM); 0 in the assay with U266 cells (48 h, drug alone 100 nM); 0 in the assay on U266 cells (48 h, drug alone 1 μM); “+” in the assay on U266 cells (48 h, drug alone 5 μM).
